Assay results published in PubChem BioAssay (NCI).
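Growth conditions: 96-well plates. Treatment: test compound, 48 hours, 5 concentrations. Analysis: linear interpolation between bracketing concentrations; unreached endpoints set to highest concentration. The concentration for 50% growth inhibition is given as GI50. TGI marks complete inhibition of growth.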

Legend:
Experiment in all cases: NCI-60 cell line screen, 48 h
786-0 renal = tested on: 786-0 renal
A498 renal = tested on: A498 renal
ACHN renal = tested on: ACHN renal
CAKI-1 renal = tested on: CAKI-1 renal
CCRF-CEM leukemia = tested on: CCRF-CEM leukemia
DU-145 prostate = tested on: DU-145 prostate
EKVX NSCLC = tested on: EKVX NSCLC
HCT-15 colon = tested on: HCT-15 colon
HOP-62 NSCLC = tested on: HOP-62 NSCLC
HOP-92 NSCLC = tested on: HOP-92 NSCLC
HS 578T breast = tested on: HS 578T breast
HT29 colon = tested on: HT29 colon
IGROV1 ovarian = tested on: IGROV1 ovarian
K-562 leukemia = tested on: K-562 leukemia
KM12 colon = tested on: KM12 colon
LOX IMVI melanoma = tested on: LOX IMVI melanoma
M14 melanoma = tested on: M14 melanoma
MALME-3M melanoma = tested on: MALME-3M melanoma
MCF7 breast = tested on: MCF7 breast
MDA-MB-231 breast = tested on: MDA-MB-231 breast
MOLT-4 leukemia = tested on: MOLT-4 leukemia
NCI-H226 lung = tested on: NCI-H226 lung
NCI-H23 lung = tested on: NCI-H23 lung
NCI-H522 lung = tested on: NCI-H522 lung
OVCAR-3 ovarian = tested on: OVCAR-3 ovarian
OVCAR-4 ovarian = tested on: OVCAR-4 ovarian
OVCAR-5 ovarian = tested on: OVCAR-5 ovarian
OVCAR-8 ovarian = tested on: OVCAR-8 ovarian
PC-3 prostate = tested on: PC-3 prostate
RPMI-8226 leukemia = tested on: RPMI-8226 leukemia
RXF 393 renal = tested on: RXF 393 renal
SF-268 CNS = tested on: SF-268 CNS
SF-539 CNS = tested on: SF-539 CNS
SK-MEL-2 melanoma = tested on: SK-MEL-2 melanoma
SK-MEL-28 melanoma = tested on: SK-MEL-28 melanoma
SK-MEL-5 melanoma = tested on: SK-MEL-5 melanoma
SK-OV-3 ovarian = tested on: SK-OV-3 ovarian
SN12C renal = tested on: SN12C renal
SNB-19 CNS = tested on: SNB-19 CNS
SW-620 colon = tested on: SW-620 colon
T-47D breast = tested on: T-47D breast
TK-10 renal = tested on: TK-10 renal
U251 CNS = tested on: U251 CNS
UACC-257 melanoma = tested on: UACC-257 melanoma
UACC-62 melanoma = tested on: UACC-62 melanoma
UO-31 renal = tested on: UO-31 renal
A549 NSCLC = tested on: A549 NSCLC
COLO 205 colon = tested on: COLO 205 colon
HCC-2998 colon = tested on: HCC-2998 colon
HCT-116 colon = tested on: HCT-116 colon
HL-60(TB) leukemia = tested on: HL-60(TB) leukemia
MDA-MB-435 = tested on: MDA-MB-435
NCI-H460 lung = tested on: NCI-H460 lung
NCI/ADR-RES ovarian = tested on: NCI/ADR-RES ovarian
SF-295 CNS = tested on: SF-295 CNS
SNB-75 CNS = tested on: SNB-75 CNS

COc1cccc(-c2cc(=O)c3cc(N4CCCCC4)ccc3[nH]2)c1
TGI (786-0 renal): > 48 µM | TGI (A498 renal): > 100 µM | TGI (ACHN renal): > 96.6 µM | TGI (CAKI-1 renal): > 100 µM | TGI (CCRF-CEM leukemia): > 100 µM | TGI (DU-145 prostate): > 100 µM | TGI (EKVX NSCLC): > 100 µM | TGI (HCT-15 colon): > 100 µM | TGI (HOP-62 NSCLC): > 43.9 µM | TGI (HOP-92 NSCLC): > 100 µM | TGI (HS 578T breast): > 86.1 µM | TGI (HT29 colon): 0.0316 µM | TGI (IGROV1 ovarian): > 100 µM | TGI (K-562 leukemia): > 100 µM | TGI (KM12 colon): 0.783 µM | TGI (LOX IMVI melanoma): > 100 µM | TGI (M14 melanoma): > 100 µM | TGI (MALME-3M melanoma): > 100 µM | TGI (MCF7 breast): > 100 µM | TGI (MDA-MB-231 breast): > 100 µM | TGI (MOLT-4 leukemia): > 100 µM | TGI (NCI-H226 lung): 0.0652 µM | TGI (NCI-H23 lung): > 20.4 µM | TGI (NCI-H522 lung): > 21 µM | TGI (OVCAR-3 ovarian): 13.3 µM | TGI (OVCAR-4 ovarian): > 57.9 µM | TGI (OVCAR-5 ovarian): > 100 µM | TGI (OVCAR-8 ovarian): > 100 µM | TGI (PC-3 prostate): > 100 µM | TGI (RPMI-8226 leukemia): > 100 µM | TGI (RXF 393 renal): 1.62 µM | TGI (SF-268 CNS): > 100 µM | TGI (SF-539 CNS): 0.0139 µM | TGI (SK-MEL-2 melanoma): > 100 µM | TGI (SK-MEL-28 melanoma): > 100 µM | TGI (SK-MEL-5 melanoma): 9.55 µM | TGI (SK-OV-3 ovarian): > 100 µM | TGI (SN12C renal): > 100 µM | TGI (SNB-19 CNS): > 100 µM | TGI (SW-620 colon): > 100 µM | TGI (T-47D breast): > 100 µM | TGI (TK-10 renal): > 100 µM | TGI (U251 CNS): > 85.9 µM | TGI (UACC-257 melanoma): > 100 µM | TGI (UACC-62 melanoma): > 100 µM | TGI (UO-31 renal): > 100 µM

CN(C)CC(O)c1ccc(/C=C/c2ccc(Cl)cc2)cc1 (stereo not drawn)
GI50 (786-0 renal): 1.63 µM | TGI (786-0 renal): 2.99 µM | GI50 (A498 renal): 1.37 µM | TGI (A498 renal): 2.66 µM | GI50 (A549 NSCLC): 1.86 µM | TGI (A549 NSCLC): 3.38 µM | GI50 (ACHN renal): 1.63 µM | TGI (ACHN renal): 3.01 µM | GI50 (CAKI-1 renal): 0.706 µM | TGI (CAKI-1 renal): 2.05 µM | GI50 (CCRF-CEM leukemia): 2.26 µM | TGI (CCRF-CEM leukemia): 4.88 µM | GI50 (COLO 205 colon): 1.71 µM | TGI (COLO 205 colon): 3.17 µM | GI50 (DU-145 prostate): 1.52 µM | TGI (DU-145 prostate): 2.85 µM | GI50 (EKVX NSCLC): 1.34 µM | TGI (EKVX NSCLC): 3.19 µM | GI50 (HCC-2998 colon): 1.54 µM | TGI (HCC-2998 colon): 2.97 µM | GI50 (HCT-116 colon): 1.46 µM | TGI (HCT-116 colon): 2.78 µM | GI50 (HCT-15 colon): 1.62 µM | TGI (HCT-15 colon): 3.32 µM | GI50 (HL-60(TB) leukemia): 1.11 µM | TGI (HL-60(TB) leukemia): 2.7 µM | GI50 (HOP-62 NSCLC): 3.13 µM | TGI (HOP-62 NSCLC): 14 µM | GI50 (HOP-92 NSCLC): 1.26 µM | TGI (HOP-92 NSCLC): 3.13 µM | GI50 (HS 578T breast): 1.49 µM | TGI (HS 578T breast): 3.21 µM | GI50 (IGROV1 ovarian): 1.21 µM | TGI (IGROV1 ovarian): 2.64 µM | GI50 (K-562 leukemia): 1.14 µM | TGI (K-562 leukemia): 3.55 µM | GI50 (KM12 colon): 1.66 µM | TGI (KM12 colon): 3.03 µM | GI50 (LOX IMVI melanoma): 1.63 µM | TGI (LOX IMVI melanoma): 2.98 µM | GI50 (M14 melanoma): 1.67 µM | TGI (M14 melanoma): 3.11 µM | GI50 (MALME-3M melanoma): 1.6 µM | TGI (MALME-3M melanoma): 3.34 µM | GI50 (MCF7 breast): 1.63 µM | TGI (MCF7 breast): 3.19 µM | GI50 (MDA-MB-231 breast): 1.7 µM | TGI (MDA-MB-231 breast): 3.14 µM | GI50 (MDA-MB-435): 1.62 µM | TGI (MDA-MB-435): 3.13 µM | GI50 (NCI-H226 lung): 11.9 µM | TGI (NCI-H226 lung): 27.3 µM | GI50 (NCI-H23 lung): 1.62 µM | TGI (NCI-H23 lung): 3.19 µM | GI50 (NCI-H460 lung): 1.45 µM | TGI (NCI-H460 lung): 2.75 µM | GI50 (NCI/ADR-RES ovarian): 1.67 µM | TGI (NCI/ADR-RES ovarian): 3.19 µM | GI50 (OVCAR-3 ovarian): 1.57 µM | TGI (OVCAR-3 ovarian): 2.91 µM | GI50 (OVCAR-4 ovarian): 2.49 µM | TGI (OVCAR-4 ovarian): 6.58 µM | GI50 (OVCAR-5 ovarian): 1.72 µM | TGI (OVCAR-5 ovarian): 3.59 µM | GI50 (OVCAR-8 ovarian): 1.75 µM | TGI (OVCAR-8 ovarian): 3.32 µM | GI50 (PC-3 prostate): 1.42 µM | TGI (PC-3 prostate): 3.09 µM | GI50 (RPMI-8226 leukemia): 5.34 µM | TGI (RPMI-8226 leukemia): 22.4 µM | GI50 (RXF 393 renal): 3.89 µM | TGI (RXF 393 renal): 16.2 µM | GI50 (SF-268 CNS): 1.49 µM | TGI (SF-268 CNS): 2.88 µM | GI50 (SF-295 CNS): 1.53 µM | TGI (SF-295 CNS): 3 µM | GI50 (SF-539 CNS): 1.82 µM | TGI (SF-539 CNS): 3.84 µM | GI50 (SK-MEL-28 melanoma): 1.84 µM | TGI (SK-MEL-28 melanoma): 3.45 µM | GI50 (SK-MEL-5 melanoma): 3.49 µM | TGI (SK-MEL-5 melanoma): 13.7 µM | GI50 (SK-OV-3 ovarian): 13 µM | TGI (SK-OV-3 ovarian): 26.5 µM | GI50 (SN12C renal): 10.4 µM | TGI (SN12C renal): 22.9 µM | GI50 (SNB-19 CNS): 2.88 µM | TGI (SNB-19 CNS): 10.4 µM | GI50 (SNB-75 CNS): 1.71 µM | TGI (SNB-75 CNS): 4.18 µM | GI50 (SW-620 colon): 1.6 µM | TGI (SW-620 colon): 2.95 µM | GI50 (T-47D breast): 3.76 µM | TGI (T-47D breast): 16.6 µM | GI50 (U251 CNS): 1.53 µM | TGI (U251 CNS): 2.86 µM | GI50 (UACC-257 melanoma): 1.63 µM | TGI (UACC-257 melanoma): 3.15 µM | GI50 (UACC-62 melanoma): 1.62 µM | TGI (UACC-62 melanoma): 3.02 µM | GI50 (UO-31 renal): 1.3 µM | TGI (UO-31 renal): 2.61 µM

N=C(N)c1ccc(OCCCCCCCCCCOc2ccc(C(=N)N)cc2)cc1
GI50 (ACHN renal): 1.54 µM | TGI (ACHN renal): 2.88 µM | GI50 (DU-145 prostate): 1.61 µM | TGI (DU-145 prostate): 3.01 µM | GI50 (HCC-2998 colon): 1.29 µM | TGI (HCC-2998 colon): 2.79 µM | GI50 (NCI/ADR-RES ovarian): 17.7 µM | TGI (NCI/ADR-RES ovarian): 83.7 µM | GI50 (RXF 393 renal): 1.28 µM | TGI (RXF 393 renal): 2.87 µM
